≈ marks a conversion by molar mass, not a printed value. Square brackets hold non-standard residues; d marks the D form. Peptide text beside a SMILES is read from it. * marks the point of attachment. ξ: configuration not given here. ξE = NC(CCC(=O)O)C(=O)O; Cbz = O=C(OCc1ccccc1)*; CH2F = FC*
Tests used:
[1] = system: SARS-CoV infected Vero-cells; assay type: cell-based; settings: concentration of 1 μM
[2] = system: Vero-cells
[3] = system: SARS-CoV infected Vero 76 cells; assay type: cell-based; settings: for EC50 (protection from virus-induced cell death): SARS-CoV infected Vero 76 cells, 72 h, neutral red; for SI value: from TC50 and EC50, indication of potential therapeutical index
[4] = system: uninfected Vero 76 cells

Compound | inhibition of the cytopathic effect (CPE) of SARS-CoV [1] [%] | toxicity at the same concentration [2] | EC50 (protection from virus-induced cell death) [3] [µg/mL] | SI value [3] | TC50 (toxicity of the compound) [4] [µg/mL]
CC(C)CC(NC(=O)C(NC(=O)OCc1ccccc1)C(C)C)C(=O)NC(CCC(=O)N(C)C)C(=O)CF (stereo not drawn) [Example 7, 4-(Cbz-Val-Leu-Amido)-6-Fluoro-5-Oxo-Hexanoic Acid Dimethylamide] (Cbz-Val-Leu-Glu(NMe2)-CH2F; configuration not given here) | 94.5 | no toxicity was observed | – | – | –
CNC(=O)CCC(NC(=O)[C@H](CC(C)C)NC(=O)OCc1ccccc1)C(=O)CF (stereo partly drawn) [Example 12, 4-(Cbz-Leu-Amido)-6-Fluoro-5-Oxo-Hexanoic Acid Methylamide] (Cbz-Leu-[ξE](NHMe)-CH2F) | 100 | no toxicity was observed | – | – | –
CC(C)[C@H](NC(=O)OCc1ccccc1)C(=O)NC(CC(=O)N(C)C)C(=O)CF (stereo partly drawn) [Example 17, 3-(Cbz-Val-Amido)-5-Fluoro-4-Oxo-Pentanoic Acid Dimethylamide] | – | – | 2.1 (≈ 5.13 µM) | > 24 | > 50
CC(C)[C@H](NC(=O)OCc1ccccc1)C(=O)NC(CCC(=O)N(C)C)C(=O)CF (stereo partly drawn) [Example 24, 4-(Cbz-Val-Amido)-6-Fluoro-5-Oxo-Hexanoic Acid Dimethylamide] (Cbz-Val-[ξE](NMe2)-CH2F) | 100 | no toxicity was observed | 0.02 (≈ 0.0472 µM) | > 500 | > 10
